Test results reported in US20170051149A1, “AZOARYLS AS REVERSIBLY MODULATABLE TUBULIN INHIBITORS” (ECOLE NORMALE SUPERIEURE DE LYON, priority 2014, published 2017).

Columns and labels:
Type in all cases: cell-based
MDA-MB-231 = test: membrane permeability, PI uptake in nonpermeabilized cells; details: 70 h
Experimental: (§1) Membrane integrity was assessed as a marker of cellular viability, via examining the uptake of propidium iodide (PI) in nonpermeabilized cells according to a standard protocol. Namely, cells were harvested and incubated with 5 μg/mL PI in PBS containing 2% FCS (foetal calf serum), and immediately analysed by flow cytometry using a FACSCalibur flow cytometer.

Jurkat cells = test: as above; details: 48 h
Experimental: as §1

HeLa = test: as above; details: 70 h
Experimental: as §1

HEK-293T cells = test: MTT assay, light-dependent cell proliferation; details: 72 h
HepG2 cells = test: cell cycle analysis by PI flow cytometry; details: 48 h
Experimental: The effect of compound I.1 on cell cycle progression was assessed by flow cytometry. Briefly, following the application of compound I.1 and exposure to the indicated light regime, cells were harvested on ice and incubated in a hypotonic buffer [0.1% sodium citrate, 0.1% Triton X-100 and 50 μg/mL propidium iodide (PI)] for 30 min at 4° C. Following the PI staining cells were analysed by flow cytometry using FACSCalibur flow cytometer (Becton Dickinson, Heidelberg, Germany) and Cell Quest Pro Software (Becton Dickinson). Subsequently the cell cycle analysis was performed using the FlowJo software (Tree Star Inc., Ashland, Oreg., USA).

[1] = 200 nM, 390 nm (1 s every 15 min)
[2] = 600 nM, 390 nm (1 s every 15 min)
[3] = 1.5 μM, 390 nm (1 s every 15 min)
[4] = 5 μM, 390 nm (1 s every 15 min)

## COc1ccc(N=Nc2cc(OC)c(OC)c(OC)c2)cc1O [I.1, 2-methoxy-5-((3,4,5-trimethoxyphenyl)diazenyl)phenol]
MDA-MB-231; [1]
  mean % cells PI+: 4.4%
MDA-MB-231; 200 nM, dark
  mean % cells PI+: 5.0%
MDA-MB-231; [2]
  mean % cells PI+: 8.2%
MDA-MB-231; 600 nM, dark
  mean % cells PI+: 4.6%
MDA-MB-231; [3]
  mean % cells PI+: 24.1%
MDA-MB-231; 1.5 μM, dark
  mean % cells PI+: 4.3%
MDA-MB-231; [4]
  mean % cells PI+: 47.2%
MDA-MB-231; 5 μM, dark
  mean % cells PI+: 5.0%
Jurkat cells; 50 nM, 390 nm (350 ms every 5 min)
  mean % cells PI+: 1.3%
Jurkat cells; 50 nM, Dark
  mean % cells PI+: 1.6%
Jurkat cells; 100 nM, 390 nm (350 ms every 5 min)
  mean % cells PI+: 2.3%
Jurkat cells; 100 nM, dark
  mean % cells PI+: 2.2%
Jurkat cells; 200 nM, 390 nm (350 ms every 5 min)
  mean % cells PI+: 3.4%
Jurkat cells; 200 nM, dark
  mean % cells PI+: 2.3%
Jurkat cells; 400 nM, 390 nm (350 ms every 5 min)
  mean % cells PI+: 6.3%
Jurkat cells; 400 nM, dark
  mean % cells PI+: 2.3%
Jurkat cells; 600 nM, 390 nm (350 ms every 5 min)
  mean % cells PI+: 8.1%
Jurkat cells; 600 nM, dark
  mean % cells PI+: 2.8%
HeLa; [1]
  mean % cells PI+: 4.5%
HeLa; 200 nM, dark
  mean % cells PI+: 4.5%
HeLa; [2]
  mean % cells PI+: 8.2%
HeLa; 600 nM, dark
  mean % cells PI+: 4.3%
HeLa; [3]
  mean % cells PI+: 46.1%
HeLa; 1.5 μM, dark
  mean % cells PI+: 4.2%
HeLa; [4]
  mean % cells PI+: 73.0%
HeLa; 5 μM, dark
  mean % cells PI+: 5.1%
HEK-293T cells; 100 nM, 390 nm, 0.35 s every 2 min
  fold growth relative to cosolvent control (MTT): 1.31
HEK-293T cells; 100 nM, 390 nm, 0.35s then 490 nm, 3 s (rescue) every 2 min
  fold growth relative to cosolvent control (MTT): 1.26
HEK-293T cells; 100 nM, 410 nm, 0.35 s every 2 min
  fold growth relative to cosolvent control (MTT): 1.19
HEK-293T cells; 100 nM, 410 nm, 0.35 s then 505 nm, 3 s (rescue) every 2 min
  fold growth relative to cosolvent control (MTT): 1.29
HEK-293T cells; 100 nM, 475 nm, 3 s every 2 min
  fold growth relative to cosolvent control (MTT): 1.11
HEK-293T cells; 100 nM, 490 nm, 3 s every 2 min
  fold growth relative to cosolvent control (MTT): 1.10
HEK-293T cells; 100 nM, 505 nm, 3 s every 2 min
  fold growth relative to cosolvent control (MTT): 1.22
HEK-293T cells; 100 nM, 525 nm, 3 s every 2 min
  fold growth relative to cosolvent control (MTT): 1.12
HEK-293T cells; 100 nM, Dark
  fold growth relative to cosolvent control (MTT): 1.29
HEK-293T cells; 400 nM, 390 nm, 0.35 s every 2 min
  fold growth relative to cosolvent control (MTT): 0.67
HEK-293T cells; 400 nM, 390 nm, 0.35s then 490 nm, 3 s (rescue) every 2 min
  fold growth relative to cosolvent control (MTT): 0.69
HEK-293T cells; 400 nM, 410 nm, 0.35 s every 2 min
  fold growth relative to cosolvent control (MTT): 0.70
HEK-293T cells; 400 nM, 410 nm, 0.35 s then 505 nm, 3 s (rescue) every 2 min
  fold growth relative to cosolvent control (MTT): 0.86
HEK-293T cells; 400 nM, 475 nm, 3 s every 2 min
  fold growth relative to cosolvent control (MTT): 0.55
HEK-293T cells; 400 nM, 490 nm, 3 s every 2 min
  fold growth relative to cosolvent control (MTT): 0.69
HEK-293T cells; 400 nM, 505 nm, 3 s every 2 min
  fold growth relative to cosolvent control (MTT): 0.87
HEK-293T cells; 400 nM, 525 nm, 3 s every 2 min
  fold growth relative to cosolvent control (MTT): 0.82
HEK-293T cells; 400 nM, Dark
  fold growth relative to cosolvent control (MTT): 0.87
HEK-293T cells; 800 nM, 390 nm, 0.35 s every 2 min
  fold growth relative to cosolvent control (MTT): 0.38
HEK-293T cells; 800 nM, 390 nm, 0.35s then 490 nm, 3 s (rescue) every 2 min
  fold growth relative to cosolvent control (MTT): 0.33
HEK-293T cells; 800 nM, 410 nm, 0.35 s every 2 min
  fold growth relative to cosolvent control (MTT): 0.51
HEK-293T cells; 800 nM, 410 nm, 0.35 s then 505 nm, 3 s (rescue) every 2 min
  fold growth relative to cosolvent control (MTT): 0.67
HEK-293T cells; 800 nM, 475 nm, 3 s every 2 min
  fold growth relative to cosolvent control (MTT): 0.37
HEK-293T cells; 800 nM, 490 nm, 3 s every 2 min
  fold growth relative to cosolvent control (MTT): 0.43
HEK-293T cells; 800 nM, 505 nm, 3 s every 2 min
  fold growth relative to cosolvent control (MTT): 0.92
HEK-293T cells; 800 nM, 525 nm, 3 s every 2 min
  fold growth relative to cosolvent control (MTT): 1.00
HEK-293T cells; 800 nM, Dark
  fold growth relative to cosolvent control (MTT): 0.95
HEK-293T cells; 1.5 μM, 390 nm, 0.35 s every 2 min
  fold growth relative to cosolvent control (MTT): 0.22
HEK-293T cells; 1.5 μM, 390 nm, 0.35s then 490 nm, 3 s (rescue) every 2 min
  fold growth relative to cosolvent control (MTT): 0.18
HEK-293T cells; 1.5 μM, 410 nm, 0.35 s every 2 min
  fold growth relative to cosolvent control (MTT): 0.25
HEK-293T cells; 1.5 μM, 410 nm, 0.35 s then 505 nm, 3 s (rescue) every 2 min
  fold growth relative to cosolvent control (MTT): 0.25
HEK-293T cells; 1.5 μM, 475 nm, 3 s every 2 min
  fold growth relative to cosolvent control (MTT): 0.19
HEK-293T cells; 1.5 μM, 490 nm, 3 s every 2 min
  fold growth relative to cosolvent control (MTT): 0.19
HEK-293T cells; 1.5 μM, 505 nm, 3 s every 2 min
  fold growth relative to cosolvent control (MTT): 0.42
HEK-293T cells; 1.5 μM, 525 nm, 3 s every 2 min
  fold growth relative to cosolvent control (MTT): 0.66
HEK-293T cells; 1.5 μM, Dark
  fold growth relative to cosolvent control (MTT): 0.71
HEK-293T cells; 3 μM, 390 nm, 0.35 s every 2 min
  fold growth relative to cosolvent control (MTT): 0.17
HEK-293T cells; 3 μM, 390 nm, 0.35s then 490 nm, 3 s (rescue) every 2 min
  fold growth relative to cosolvent control (MTT): 0.14
HEK-293T cells; 3 μM, 410 nm, 0.35 s every 2 min
  fold growth relative to cosolvent control (MTT): 0.18
HEK-293T cells; 3 μM, 410 nm, 0.35 s then 505 nm, 3 s (rescue) every 2 min
  fold growth relative to cosolvent control (MTT): 0.22
HEK-293T cells; 3 μM, 475 nm, 3 s every 2 min
  fold growth relative to cosolvent control (MTT): 0.15
HEK-293T cells; 3 μM, 490 nm, 3 s every 2 min
  fold growth relative to cosolvent control (MTT): 0.20
HEK-293T cells; 3 μM, 505 nm, 3 s every 2 min
  fold growth relative to cosolvent control (MTT): 0.27
HEK-293T cells; 3 μM, 525 nm, 3 s every 2 min
  fold growth relative to cosolvent control (MTT): 0.64
HEK-293T cells; 3 μM, Dark
  fold growth relative to cosolvent control (MTT): 0.66
HEK-293T cells; 6 μM, 390 nm, 0.35 s every 2 min
  fold growth relative to cosolvent control (MTT): 0.29
HEK-293T cells; 6 μM, 390 nm, 0.35s then 490 nm, 3 s (rescue) every 2 min
  fold growth relative to cosolvent control (MTT): 0.18
HEK-293T cells; 6 μM, 410 nm, 0.35 s every 2 min
  fold growth relative to cosolvent control (MTT): 0.23
HEK-293T cells; 6 μM, 410 nm, 0.35 s then 505 nm, 3 s (rescue) every 2 min
  fold growth relative to cosolvent control (MTT): 0.30
HEK-293T cells; 6 μM, 475 nm, 3 s every 2 min
  fold growth relative to cosolvent control (MTT): 0.21
HEK-293T cells; 6 μM, 490 nm, 3 s every 2 min
  fold growth relative to cosolvent control (MTT): 0.34
HEK-293T cells; 6 μM, 505 nm, 3 s every 2 min
  fold growth relative to cosolvent control (MTT): 0.27
HEK-293T cells; 6 μM, 525 nm, 3 s every 2 min
  fold growth relative to cosolvent control (MTT): 0.39
HEK-293T cells; 6 μM, Dark
  fold growth relative to cosolvent control (MTT): 0.80
HEK-293T cells; 15 μM, 390 nm, 0.35 s every 2 min
  fold growth relative to cosolvent control (MTT): 0.28
HEK-293T cells; 15 μM, 390 nm, 0.35s then 490 nm, 3 s (rescue) every 2 min
  fold growth relative to cosolvent control (MTT): 0.21
HEK-293T cells; 15 μM, 410 nm, 0.35 s every 2 min
  fold growth relative to cosolvent control (MTT): 0.23
HEK-293T cells; 15 μM, 410 nm, 0.35 s then 505 nm, 3 s (rescue) every 2 min
  fold growth relative to cosolvent control (MTT): 0.24
HEK-293T cells; 15 μM, 475 nm, 3 s every 2 min
  fold growth relative to cosolvent control (MTT): 0.17
HEK-293T cells; 15 μM, 490 nm, 3 s every 2 min
  fold growth relative to cosolvent control (MTT): 0.31
HEK-293T cells; 15 μM, 505 nm, 3 s every 2 min
  fold growth relative to cosolvent control (MTT): 0.20
HEK-293T cells; 15 μM, 525 nm, 3 s every 2 min
  fold growth relative to cosolvent control (MTT): 0.29
HEK-293T cells; 15 μM, Dark
  fold growth relative to cosolvent control (MTT): 0.87
HepG2 cells; 100 nM, 390 nm (250 ms every 15 s)
  mean % G2/M phase: 7.8%
HepG2 cells; 100 nM, dark
  mean % G2/M phase: 10.0%
HepG2 cells; 600 nM, 390 nm (250 ms every 15 s)
  mean % G2/M phase: 9.4%
HepG2 cells; 600 nM, dark
  mean % G2/M phase: 8.6%
HepG2 cells; 1 μM, 390 nm (250 ms every 15 s)
  mean % G2/M phase: 10.7%
HepG2 cells; 1 μM, dark
  mean % G2/M phase: 10.1%
HepG2 cells; 3 μM, 390 nm (250 ms every 15 s)
  mean % G2/M phase: 9.3%
HepG2 cells; 3 μM, dark
  mean % G2/M phase: 11.2%
HepG2 cells; 10 μM, 390 nm (250 ms every 15 s)
  mean % G2/M phase: 42.3%
HepG2 cells; 10 μM, dark
  mean % G2/M phase: 11.7%
